We go through seven compounds from patent US20170151256A1, “ANTITUMOR AGENT” (ZERIA PHARMACEUTICAL CO., LTD., priority 2005, published 2017).

Data set [1] deals with human colon cancer cells (HT-29). In words: HT-29 subcutaneous xenograft, alone and in combination with 5-FU. It counts as in vivo, mouse. The procedure: 1×10^6 cells of human colon cancer cells (HT-29) were subcutaneously implanted into right abdomen of female Balb/c nude mice. […] For comparison, 5-FU was intraperitoneally administered to mice in positive control groups at doses of 3, 10, and 30 mg/kg once daily for 12 days. […] On the day following the final administration, the tumor was removed and weighed. […] Percent inhibition of tumor growth was calculated based on the tumor weights in each administration groups versus that in a control group.

In data set [2] the test system is human colon cancer xenograft. To be noted: Non-Patent Document 14, cited from earlier work.
Data set [3] concerns human pancreatic cancer PANC-1. Conditions: Non-Patent Document 12, cited from earlier work.
For data set [4], the system named is pancreatic cancer or colon cancer xenograft. To be noted: only observed at a high dose of 200 mg/kg or more; Patent Document 1; cited from earlier work.
Data set [5] can be described thus: Toxicity test through 28-day repeated oral administration to rats. It counts as in vivo.
The nature of data set [6]: Toxicity test through 28-day repeated oral administration to dogs. Format: in vivo.
Data set [7] concerns human pancreatic cancer cells (PAN1VC). The data set can be described thus: PAN1VC implanted into pancreas, tumor weight, alone and with gemcitabine. It counts as in vivo, mouse. To be noted: male nude mice. The procedure: 1×10^6 cells of human pancreatic cancer cells (PAN1VC) were implanted into the pancreas of male nude mice. […] Percent inhibition of tumor growth was calculated based on the tumor weights in each administration groups versus that in a control group.

The subject of data set [8] is human pancreatic cancer cells (PANC-1). The data set can be described thus: PANC-1 implanted into pancreas, lethal model, survival with gemcitabine combination (Table 1). Format: in vivo, mouse. To be noted: female SCID mice, compound A1 100 mg/kg oral once daily from day 7, GEM 100 mg/kg i.v. days 7, 10, 14. The procedure:
A small piece (70 to 80 mg) of human pancreatic cancer cells (PANC-1) was implanted into the pancreas of female SCID mice (15 mice for each group). […] In another group of mice, on seven, 10, and 14 days after implantation, gemcitabine hydrochloride (Gemzar Injection®) was intravenously administered at a dose of 100 mg/kg.

The test system is the same in data set [9]. In words: PANC-1 implanted into pancreas, lethal model, survival rate. It counts as in vivo, mouse. To be noted: gemcitabine hydrochloride 100 mg/kg i.v. on days 7, 10, 14 after implantation; 40 days after administration start (46 days after implantation); female SCID mice (control […]). The procedure:
A small piece (70 to 80 mg) of human pancreatic cancer cells (PANC-1) was implanted into the pancreas of female SCID mice (15 mice for each group). […] In another group of mice, on seven, 10, and 14 days after the implantation, gemcitabine hydrochloride (Gemzar Injection®) as a positive control was intravenously injected at a dose of 100 mg/kg.

Data set [10] has as its system human colon cancer cells (C170HM2). The data set can be described thus: C170HM2 intraperitoneal model, tumor metastasis to the liver. It counts as in vivo, mouse. Conditions: 40 days after implantation, male nude mice. The procedure: 1.5×10^6 cells of human colon cancer cells (C170HM2) were intraperitoneally injected into male nude mice. […] Meanwhile, in a positive control group, the combination of 5-fluorouracil (hereinafter called “5-FU”) and leucovorin were intravenously administered (for each compound, 25 mg/kg/injection) one, four, seven, and 10 days after tumor implantation. Forty days after implantation of C170HM2 tumor, the weight of tumor-metastasized liver was measured.

Data set [11] deals with human colon cancer cells (HT-29). The data set can be described thus: HT-29 subcutaneous xenograft, tumor weight. Format: in vivo, mouse. To be noted: female Balb/c nude mice. The procedure: 1×10^6 cells of human colon cancer cells (HT-29) were subcutaneously implanted into right abdomen of female Balb/c nude mice. […] On the day following the final administration, the tumor was removed and weighed. In a control group, vehicle was orally administered to mice, and the tumor weight was measured in similar manner to that described above. Percent inhibition of tumor growth was calculated based on the tumor weights in each administration groups versus that in a control group.

The test system of data set [12] is human pancreatic cancer cells (MIAPaCa 2). In words: MIAPaCa 2 subcutaneous xenograft, tumor weight. Format: in vivo, mouse. Conditions: female Balb/c nude mice. The procedure:
3×10^6 cells of human pancreatic cancer cells (MIAPaCa 2) were subcutaneously implanted into right abdomen of female Balb/c nude mice. […] On the day following the final administration, the tumor was removed and weighed. For comparison, vehicle was orally administered to mice in a control group, and the tumor weight was measured in similar manner to that described above. Percent inhibition of tumor growth was calculated based on the tumor weights in each administration group versus that in a control group.

[13] abbreviates: rats, 1,000 mg/kg for 28 consecutive days (summary statement).
The mark [14] stands for this setting: dogs, 1,000 mg/kg for 28 consecutive days (summary statement).
Where [15] appears, read: 30, 100, 300 or 1,000 mg/kg oral for 28 days, male and female SD rats, any group.
[16] abbreviates: 30, 100, 300 or 1,000 mg/kg oral for 28 days, male and female beagle dogs, any group.

Where a name gives a salt, the structure may show the parent alone. Read-outs that look alike come from different tables or passages of the source.

For `O=c1[nH]cc(F)c(=O)[nH]1` [5-FU, 5-fluorouracil], the “Percent inhibition of tumor growth (tumor weight vs control)” value (shortened to “Percent inhibition of tumor growth”) in data set [1] (5-FU alone, 3 mg/kg i.p. once daily for 12 days) amounted to 24%; in data set [1] (5-FU alone, 10 mg/kg i.p. once daily for 12 days) it was 30%; in data set [1] (5-FU alone, 30 mg/kg i.p. once daily for 12 days), 58%.
Turning to `C[C@](Cc1c[nH]c2ccccc12)(NC(=O)OC1[C@H]2C[C@@H]3C[C@@H](C[C@H]1C3)C2)C(=O)NC[C@H](NC(=O)CCC(=O)O)c1ccccc1` (some centres unmarked) [CI-988], the “Cell growth suppressive effect” value is “exhibits cell growth suppressive effect” in data set [2] (oral 25 mg/kg, without non-physiological gastrin stimulation) and “exhibits no cell growth suppressive effect” in data set [2] (oral 50 mg/kg).
In the case of `Cc1cccc(NC(=O)N[C@@H]2N=C(c3ccccc3)c3ccccc3N(C)C2=O)c1` [L-365,260], in data set [3] (with gastrin stimulation), the Gastrin-induced tumor growth result was “suppresses gastrin-induced tumor growth”. The “Tumor growth without stimulation by gastrin” value in data set [3] (without gastrin stimulation) is “does not suppress tumor growth”.
In the case of `CNc1cccc(NC(=O)N[C@@H]2N=C(c3ccccn3)c3ccccc3N(CC(=O)C(C)(C)C)C2=O)c1` [YF476], the Tumor-shrinking effect result in [4] is “exhibits tumor-shrinking effect”.
`CC(C)(C)C(=O)CN1C(=O)[C@H](NC(=O)Nc2cccc(C(=O)O)c2)CN(C2CCCCC2)c2ccccc21` [compound A, (R)-(−)-3-[3-(1-tert-butylcarbonylmethyl-2-oxo-5-cyclohexyl-1,3,4,5-tetrahydro-2H-1,5-benzodiazepin-3-yl)ureido]benzoic acid]: in data set [5] (setting [13]), the “Abnormality in body weight, feed intake, ophthalmological test, urine test, organ weight, autopsy finding, histopathological test” value (“Abnormality … histopathological test” for short) is recorded as “no abnormality was found” and the Deaths entry is recorded as “no deaths were observed”. For the same compound, in data set [6] (setting [14]), the “Abnormality … histopathological test” value is recorded as “no abnormality was found” and the Deaths entry is “no deaths were observed”.
`Nc1ccn([C@@H]2O[C@H](CO)[C@@H](O)C2(F)F)c(=O)n1` [gemcitabine hydrochloride]: in data set [7] (gemcitabine hydrochloride alone, 5 mg/kg i.v. on days 1, 3, 6 after implantation), the “Percent inhibition of tumor growth” value was found to be 32%. In data set [8] (alone or combined (control 0)), the “Survival rate at 60 days after initiation of administration (66 days after implantation)” value came out at 0%. Moreover, the Median survival time in data set [8] (alone or combined (control 39)) is recorded as 48 days. In data set [8] (alone or combined (control 40)), the “Survival rate at 50 days after initiation of administration (56 days after implantation)” value is on record as 20%. Besides, the Average survival time in data set [8] (alone or combined (control 43)) came out at 46.9 days. Moreover, the “Days of death of the last individual” value in data set [8] (alone or combined (control 56)) was 54 days. Also, the Survival rate in data set [9] was found to be 93.3%.
Consider “calcium (R)-(−)-3-[3-(1-tert-butylcarbonylmethyl-2-oxo-5-cyclohexyl-1,3,4,5-tetrahydro-2H-1,5-benzodiazepin-3-yl)ureido]benzoate [compound A1]”, for which the figures for the “Inhibition of tumor metastasis to the liver (weight of tumor-metastasized liver)” value in [10] (3 mg/kg oral once daily) and in data set [10] (30 mg/kg oral once daily) were 73% and 81%, respectively. The “Percent inhibition of tumor growth” value in [11] (30 mg/kg oral once daily for 17 days from 4 days after implantation) came out at 44%; in [11] (100 mg/kg oral once daily for 17 days from 4 days after implantation) it was 50%; in data set [7] (compound A1 alone, 30 mg/kg oral once daily for 36 days) it was 19%; in data set [7] (compound A1 alone, 100 mg/kg oral once daily for 36 days) it was 23%; in [12] (30 mg/kg oral once daily for 21 days), 40%; in [12] (100 mg/kg oral once daily for 21 days) it was 42%. For the same compound, the “Percent inhibition of tumor growth” value in data set [1] (compound A1 alone, 30 mg/kg oral once daily for 12 days from 10 days after implantation) amounted to 34%. The “Abnormality … histopathological test” value in data set [5] (setting [15]) was “no abnormality was found”. The Deaths entry in data set [5] (setting [15]) and in data set [6] (setting [16]) was “no deaths were observed” in each case. In [6] (setting [16]), the “Abnormality in body weight, feed intake, ophthalmological test, electrocardiogram, blood pressure, urine test, hematological test, blood biochemical test, organ weight, autopsy finding” value is “no abnormality was found”.
